Experimental data reported in patent publication US9695155B2, “Herbicidal substituted pyrimidinyloxy benzene compounds” (E. I. DU PONT DE NEMOURS AND COMPANY, priority 2013, dated 2017).

Key:
Brazilian crabgrass = assay: Test E preemergence; format: in vivo, Digitaria horizontalis; settings: for Crabgrass, Brazil plant response rating: scale 0 to 100 (0 no effect, 100 complete control); for Plant response rating, Crabgrass, Brazil: scale 0 to 100, 0 no effect, 100 complete control
Outline: (§1)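 Test chemicals formulated in a non-phytotoxic solvent mixture containing a surfactant were applied preemergence to seeds in silt loam soil or postemergence to plants at the 1- to 4-leaf stage in potting mix. After 14 to 21 days in a greenhouse, injury was visually rated against controls on a 0-100 scale (0 = no effect, 100 = complete control).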

goosegrass = assay: Test E preemergence; format: in vivo, Eleusine indica; settings: for Goosegrass plant response rating: scale 0 to 100 (0 no effect, 100 complete control); for Plant response rating, Goosegrass: scale 0 to 100, 0 no effect, 100 complete control
Outline: as §1

waterhemp = assay: Test E preemergence; format: in vivo, Amaranthus rudis; settings: for Waterhemp plant response rating: scale 0 to 100 (0 no effect, 100 complete control); for Plant response rating, Waterhemp: scale 0 to 100, 0 no effect, 100 complete control
Outline: as §1

ducksalad = assay: Test C flooded paddy test; format: in vivo, Heteranthera limosa; settings: Flood, scale 0 to 100 (0 no effect, 100 complete control), 13 to 15 days
Outline: (§2)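 Visual injury ratings against untreated controls, taken 13 to 15 days after compound was added to paddy water standing 3 cm above the soil.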

corn = assay: Test E preemergence; format: in vivo, Zea mays; settings: for Corn plant response rating: scale 0 to 100 (0 no effect, 100 complete control); for Plant response rating, Corn: scale 0 to 100, 0 no effect, 100 complete control
Outline: as §1

lambsquarters = assay: Test E preemergence; format: in vivo, Chenopodium album; settings: for Lambsquarters plant response rating: scale 0 to 100 (0 no effect, 100 complete control); for Plant response rating, Lambsquarters: scale 0 to 100, 0 no effect, 100 complete control
Outline: as §1

wild poinsettia = assay: Test E preemergence; format: in vivo, Euphorbia heterophylla; settings: for Poinsettia, Wild plant response rating: scale 0 to 100 (0 no effect, 100 complete control); for Plant response rating, Poinsettia, Wild: scale 0 to 100, 0 no effect, 100 complete control
Outline: as §1

field bindweed = assay: Test E preemergence; format: in vivo, Convolvulus arvensis; settings: for Field Bindweed plant response rating: scale 0 to 100 (0 no effect, 100 complete control); for Plant response rating, Field Bindweed: scale 0 to 100, 0 no effect, 100 complete control
Outline: as §1

barnyardgrass [1] = assay: Test C flooded paddy test; format: in vivo, Echinochloa crus-galli; settings: Flood, scale 0 to 100 (0 no effect, 100 complete control), 13 to 15 days
Outline: as §2

barnyardgrass [2] = assay: Test E preemergence; format: in vivo, Echinochloa crus-galli; settings: for Barnyardgrass plant response rating: scale 0 to 100 (0 no effect, 100 complete control); for Plant response rating, Barnyardgrass: scale 0 to 100, 0 no effect, 100 complete control
Outline: as §1

kochia [3] = assay: Test A postemergence; format: in vivo, Kochia scoparia; settings: 0 to 100 scale where 0 is no effect and 100 is complete control
Outline: (§3)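 Visual 0–100 rating (100 = complete control) taken about 10 d post-treatment relative to untreated checks. Preemergence: directed soil spray on sown loam/sand pots. Postemergence: seedlings 2–10 cm, 1–2 leaf. Non-phytotoxic solvent formulation with surfactant.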

galium = assay: Test A postemergence; format: in vivo, Galium aparine; settings: 0 to 100 scale where 0 is no effect and 100 is complete control
Outline: as §3

kochia [4] = assay: Test A preemergence; format: in vivo, Kochia scoparia
Outline: as §3

ragweed = assay: Test A preemergence; format: in vivo, Ambrosia elatior; settings: 500 g ai/ha, 0 to 100 scale, 0 no effect, 100 complete control, approx. 10 days
Outline: as §3

Italian ryegrass = assay: Test A preemergence; format: in vivo, Lolium multiflorum
Outline: as §3

[5] = 125 g ai/ha, 0 to 100 scale where 0 is no effect and 100 is complete control
[6] = 500 g ai/ha, 0 to 100 scale, 0 no effect, 100 complete control, approx. 10 days

## FC(F)(F)c1cnn(-c2ccccc2Oc2ncc(Br)cn2)c1 [Compound 18, 5-bromo-2-[2-[4-(trifluoromethyl)-1H-pyrazol-1-yl]phenoxy]pyrimidine]
Brazilian crabgrass; 16 g ai/ha
  Crabgrass, Brazil plant response rating: 0
Brazilian crabgrass; 31 g ai/ha
  Crabgrass, Brazil plant response rating: 95
Brazilian crabgrass; 62 g ai/ha
  Crabgrass, Brazil plant response rating: 98
Brazilian crabgrass; 125 g ai/ha
  Plant response rating, Crabgrass, Brazil: 100
Brazilian crabgrass; 250 g ai/ha
  Plant response rating, Crabgrass, Brazil: 100
goosegrass; 16 g ai/ha
  Goosegrass plant response rating: 0
goosegrass; 31 g ai/ha
  Goosegrass plant response rating: 0
goosegrass; 62 g ai/ha
  Goosegrass plant response rating: 30
goosegrass; 125 g ai/ha
  Plant response rating, Goosegrass: 90
goosegrass; 250 g ai/ha
  Plant response rating, Goosegrass: 98
waterhemp; 16 g ai/ha
  Waterhemp plant response rating: 100
waterhemp; 31 g ai/ha
  Waterhemp plant response rating: 100
waterhemp; 62 g ai/ha
  Waterhemp plant response rating: 100
waterhemp; 125 g ai/ha
  Plant response rating, Waterhemp: 100
waterhemp; 250 g ai/ha
  Plant response rating, Waterhemp: 100
ducksalad; 31 g ai/ha
  Plant response rating, Ducksalad: 80
ducksalad; 62 g ai/ha
  Plant response rating, Ducksalad: 80
ducksalad; 125 g ai/ha
  Plant response rating, Ducksalad: 85
ducksalad; 250 g ai/ha
  Plant response rating, Ducksalad: 90
corn; 16 g ai/ha
  Corn plant response rating: 0
corn; 31 g ai/ha
  Corn plant response rating: 0
corn; 62 g ai/ha
  Corn plant response rating: 0
corn; 125 g ai/ha
  Plant response rating, Corn: 0
corn; 250 g ai/ha
  Plant response rating, Corn: 0
lambsquarters; 16 g ai/ha
  Lambsquarters plant response rating: 80
lambsquarters; 31 g ai/ha
  Lambsquarters plant response rating: 90
lambsquarters; 62 g ai/ha
  Lambsquarters plant response rating: 98
lambsquarters; 125 g ai/ha
  Plant response rating, Lambsquarters: 98
lambsquarters; 250 g ai/ha
  Plant response rating, Lambsquarters: 98
Wild poinsettia; 16 g ai/ha
  Poinsettia, Wild plant response rating: 0
Wild poinsettia; 31 g ai/ha
  Poinsettia, Wild plant response rating: 0
Wild poinsettia; 62 g ai/ha
  Poinsettia, Wild plant response rating: 0
Wild poinsettia; 125 g ai/ha
  Plant response rating, Poinsettia, Wild: 0
Wild poinsettia; 250 g ai/ha
  Plant response rating, Poinsettia, Wild: 50
Field bindweed; 16 g ai/ha
  Field Bindweed plant response rating: 0
Field bindweed; 31 g ai/ha
  Field Bindweed plant response rating: 0
Field bindweed; 62 g ai/ha
  Field Bindweed plant response rating: 30
Field bindweed; 125 g ai/ha
  Plant response rating, Field Bindweed: 40
Field bindweed; 250 g ai/ha
  Plant response rating, Field Bindweed: 40
Barnyardgrass [1]; 31 g ai/ha
  Plant response rating, Barnyardgrass: 0
Barnyardgrass [1]; 62 g ai/ha
  Plant response rating, Barnyardgrass: 0
Barnyardgrass [1]; 125 g ai/ha
  Plant response rating, Barnyardgrass: 10
Barnyardgrass [1]; 250 g ai/ha
  Plant response rating, Barnyardgrass: 20
Barnyardgrass [2]; 16 g ai/ha, preemergence
  Barnyardgrass plant response rating: 0
Barnyardgrass [2]; 31 g ai/ha, preemergence
  Barnyardgrass plant response rating: 0
Barnyardgrass [2]; Preemergence, 62 g ai/ha
  Plant response rating, Barnyardgrass: 0
Barnyardgrass [2]; preemergence, 125 g ai/ha
  Plant response rating, Barnyardgrass: 5
Barnyardgrass [2]; preemergence, 250 g ai/ha
  Plant response rating, Barnyardgrass: 20

## N#Cc1cccc(Oc2ncc(Br)cn2)c1-n1cc(I)cn1 [Compound 88]
Kochia [3]; 125 g ai/ha
  Plant response rating, Kochia: 80
Kochia [3]; 500 g ai/ha
  Plant response rating, Kochia: 100
Brazilian crabgrass; 16 g ai/ha
  Crabgrass, Brazil plant response rating: 0
Brazilian crabgrass; 31 g ai/ha
  Crabgrass, Brazil plant response rating: 0
Brazilian crabgrass; 62 g ai/ha
  Crabgrass, Brazil plant response rating: 60
Brazilian crabgrass; 125 g ai/ha
  Plant response rating, Crabgrass, Brazil: 60
goosegrass; 16 g ai/ha
  Goosegrass plant response rating: 0
goosegrass; 31 g ai/ha
  Goosegrass plant response rating: 0
goosegrass; 62 g ai/ha
  Goosegrass plant response rating: 5
goosegrass; 125 g ai/ha
  Plant response rating, Goosegrass: 5
waterhemp; 16 g ai/ha
  Waterhemp plant response rating: 20
waterhemp; 31 g ai/ha
  Waterhemp plant response rating: 35
waterhemp; 62 g ai/ha
  Waterhemp plant response rating: 35
waterhemp; 125 g ai/ha
  Plant response rating, Waterhemp: 100
corn; 16 g ai/ha
  Corn plant response rating: 0
corn; 31 g ai/ha
  Corn plant response rating: 0
corn; 62 g ai/ha
  Corn plant response rating: 35
corn; 125 g ai/ha
  Plant response rating, Corn: 35
lambsquarters; 16 g ai/ha
  Lambsquarters plant response rating: 75
lambsquarters; 31 g ai/ha
  Lambsquarters plant response rating: 50
lambsquarters; 62 g ai/ha
  Lambsquarters plant response rating: 100
lambsquarters; 125 g ai/ha
  Plant response rating, Lambsquarters: 100
galium; 125 g ai/ha
  Plant response rating, Galium: 100
galium; 500 g ai/ha
  Plant response rating, Galium: 100
Kochia [4]; [5]
  Plant response rating, Kochia: 100
Kochia [4]; [6]
  Kochia plant response rating: 100
ragweed
  Ragweed plant response rating: 60
Wild poinsettia; 16 g ai/ha
  Poinsettia, Wild plant response rating: 0
Wild poinsettia; 31 g ai/ha
  Poinsettia, Wild plant response rating: 0
Wild poinsettia; 62 g ai/ha
  Poinsettia, Wild plant response rating: 0
Wild poinsettia; 125 g ai/ha
  Plant response rating, Poinsettia, Wild: 0
Field bindweed; 16 g ai/ha
  Field Bindweed plant response rating: 0
Field bindweed; 31 g ai/ha
  Field Bindweed plant response rating: 0
Field bindweed; 62 g ai/ha
  Field Bindweed plant response rating: 0
Field bindweed; 125 g ai/ha
  Plant response rating, Field Bindweed: 50
Italian ryegrass; [5]
  Plant response rating, Ryegrass, Italian: 20
Italian ryegrass; [6]
  Ryegrass, Italian plant response rating: 30
Barnyardgrass [2]; 16 g ai/ha, preemergence
  Barnyardgrass plant response rating: 0
Barnyardgrass [2]; 31 g ai/ha, preemergence
  Barnyardgrass plant response rating: 0
Barnyardgrass [2]; Preemergence, 62 g ai/ha
  Plant response rating, Barnyardgrass: 0
Barnyardgrass [2]; preemergence, 125 g ai/ha
  Plant response rating, Barnyardgrass: 0
